In patent publication US10105400B2, “Composition of chicken liver hydrolysates and method for improving alcohol metabolism, as well as preventing and treating liver fibrosis” (NATIONAL TAIWAN UNIVERSITY, priority 2016, dated 2018):
Marks after values point to notes of the source that are not given here.

Experiments:
[1] = Relative sizes of organs and tissues, TAA liver fibrosis model; assay type: in vivo, Wistar rats
Procedure: (§1) Forty male Wistar rats of 5-week old were purchased from BioLASCO Taiwan Co., Ltd. (Taipei, Taiwan). Two rats were housed in one cage in an animal room at 22±2° C. with a 12/12 h light-dark cycle. After one week of acclimation, the mice were randomly divided into 5 groups:
(§2) (b) The thioacetamide group (The TAA group): intraperitoneal injection of 100 mg TAA/kg-body weight (bw) in 0.3 mL ddH2O and administration of 0.5 mL ddH2O by oral gavage;
(§3) (c) The composition of the chicken liver hydrolysates with low dosage (The CLH-L group): intraperitoneal injection of 100 mg TAA/kg-bw in 0.3 mL ddH2O and administration of 200 mg/kg-bw CLH in 0.5 mL ddH2O by oral gavage;
(§4) (d) The composition of the chicken liver hydrolysates with high dosage (The CLH-H group): intraperitoneal injection of 100 mg TAA/kg-bw in 0.3 mL ddH2O and administration of 600 mg/kg-bw CLH in 0.5 mL ddH2O by oral gavage; and (e) The carnosine group (The CNS group): intraperitoneal injection of 100 mg TAA/kg-bw in 0.3 mL ddH2O and administration of 200 mg/kg-bw carnosine in 0.5 mL ddH2O by oral gavage;
(§5) The experiment lasted for 10 weeks. The rats were injected with ddH2O or TAA intraperitoneally once a week and administered of ddH2O, the composition of the chicken liver hydrolysates or carnosine every day. One kilogram of the chow diet comprises 487 g carbohydrate, 239 g protein, 50 g fat, 51 g fibre and 70 g ash (Laboratory Rodent Diet 5001, PMI Nutrition International/Purina Mills LLC, Richmond, Ind., USA). All rats were fasted overnight before euthanized at the last day of experiment, the organs and the tissues were collected and weighted, and stored at −80° C. for further analysis.
(§6) The experiment was conducted by a complete randomized design. The raw data was expressed as “mean±SEM”. The data was analyzed by analysis of variance (ANOVA) and Fisher's Least Significant Different (LSD) test was used to distinguish significant differences among groups. All statistical analysis of the data was performed by SAS9.2 software (SAS Institute Inc, Cary, N.C., USA). If there is no significant difference between two groups, these groups werelabeled with one identical letter.

[2] = Body weight and feed efficiency, thioacetamide (TAA) liver fibrosis model; assay type: in vivo, Wistar rats; settings: CNS group: 200 mg/kg-bw carnosine oral gavage daily, 10 weeks, TAA 100 mg/kg-bw i.p.
Procedure: as §1
(a) The control group (The CON group): intraperitoneal injection of 0.3 mL normal saline, and administration of 0.5 mL ddH2O by oral gavage;
as §2, §3, §4, §5
(§7) The experiment was conducted by a complete randomized design. The raw data was expressed as “mean±SEM”. The data was analyzed by analysis of variance (ANOVA) and Fisher's Least Significant Different (LSD) test was used to distinguish significant differences among groups. […]

[3] = tested on: thioacetamide (TAA)-treated mice; experiment: Biochemical indexes of liver in sera, TAA liver fibrosis model; assay type: in vivo, Wistar rats; settings: serum; CNS group: 200 mg/kg-bw carnosine oral gavage daily, 10 weeks, TAA 100 mg/kg-bw i.p.
Procedure: as §1, §2, §3, §4, §5, §6

[4] = tested on: thioacetamide (TAA)-treated; experiment: as above; assay type: in vivo, Wistar rats; settings: serum; CNS group: 200 mg/kg-bw carnosine oral gavage daily, 10 weeks, TAA 100 mg/kg-bw i.p.
Procedure: as §1, §2, §3, §4, §5, §6

collagen = experiment: Collagen deposition in livers (Sirius red stain, collagen kit), TAA model; assay type: in vivo, Wistar rats
Procedure: as §1, §2
(c) The composition of the chicken liver hydrolysates with low dosage (The CLH-L group): intraperitoneal injection of 100 mg TAA/kg-bw in 0.3 mL ddH2O and administration of 200 mg/kg-bw CLH in 0.5 mL ddH2O by oral gavage; […]
as §7
Sirius red dye can bind to the helical structure of the collagen, and thus the Sirius red stain assay can be used to examine the deposition of collagen in livers. Furthermore, liver collagen levels of the mice are also determined by using commercial kits (Chondres Inc., Redmond, Wash., USA). […] The collagen content in the sample is calculated by using a standard curve plotted by bovine Type I collagen and expressed as μg/mg-protein. […]

[5] = Body weight, food intake and relative sizes of organs and tissues of mice fed alcohol liquid diet; assay type: in vivo, C57/BL/6J (B6) mice; settings: SLM group: 150 mg/kg-bw silymarin oral gavage, 8 weeks, ethanol diet
Procedure: (§8) Forty eight male C57/BL/6J (B6) mice of 8-week old were purchased from the Laboratory Animal Center of National Taiwan University. The body weight of these B6 mice were approximately 19 g to 21 g. Two mice were housed in one cage in an animal room at 22±2° C. with a 12/12 hr light-dark cycle. After one week of acclimation, the mice were randomly divided into 6 groups:
(a) The control group (the CON group): administered with the control liquid diet and 0.2 mL ddH2O by oral gavage.
(b) The ethanol group (the EtOH group): administered with the Lieber-DeCarli regular ethanol diet and 0.2 mL ddH2O by oral gavage.
(c) The composition of the chicken liver hydrolysates with low dosage (The CLH-L group): administered with the Lieber-DeCarli regular ethanol diet and 80 mg/kg-body weight (bw) of the composition of the chicken liver hydrolysates in 0.2 mL ddH2O by oral gavage.
(d) The composition of the chicken liver hydrolysates with medium dossage (The CLH-M group): administered with the Lieber-DeCarli regular ethanol diet and 320 mg/kg-bw of the composition of the chicken liver hydrolysates CLH in 0.2 mL ddH2O by oral gavage.
(e) The composition of the chicken liver hydrolysates with high dosage (The CLH-H group): administered with the Lieber-DeCarli regular ethanol diet and 1280 mg/kg-bw of the composition of the chicken liver hydrolysates in 0.2 mL ddH2O by oral gavage.
(§9) (f) The silymarin group (The SLM group): administered with the Lieber-DeCarli regular ethanol diet and 150 mg/kg-bw of silymarin in 0.2 mL ddH2O by oral gavage.
The animal experiment lasted for 8 weeks; the body weight of each mouse was recorded at the beginning and the end of the experiment. The daily liquid feed (mL) intakes as a food intake of each mouse was calculated. Mice were sacrificed after 8 weeks and the blood, heart, kidney, epididymal fat tissue, and perirenal fat tissue were all collected, weighted and then stored at −80° C. for further analysis.
The experiment was conducted by a complete randomized design. The raw data was presented as “mean±standard error of the mean (SEM)”. The data was analyzed by one way-analysis of variance (ANOVA) and Fisher's Least Significant Different test to distinguish significant differences among groups. All statistical analysis of data was performed by SAS9.2 software (SAS Institute Inc, Cary, N.C., USA). If there is no significant difference between two groups, these groups were labeled with one identical letter.

ABTS+ free radical = experiment: Trolox equivalent antioxidant capacity (TEAC) of sera and livers, alcohol liquid diet mice; assay type: in vivo, C57/BL/6J (B6) mice; settings: SLM group: 150 mg/kg-bw silymarin oral gavage, 8 weeks, ethanol diet
Procedure: as §8, with “groups: […]” for “groups:”
as §9
(§10) The animal experiment lasted for 8 weeks; the body weight of each mouse was recorded at the beginning and the end of the experiment. The daily liquid feed (mL) intakes as a food intake of each mouse was calculated. […]
(§11) The experiment was conducted by a complete randomized design. […] The data was analyzed by one way-analysis of variance (ANOVA) and Fisher's Least Significant Different test to distinguish significant differences among groups. […]
(§12) To evaluate the antioxidative ability of the composition of the chicken liver hydrolysates, the ABTS^+ free radical clearing ability is tested and represented as trolox equivalent antioxidant capacity (TEAC). The lipid peroxidation is also determined by thiobarbituric acid reactive substance (TBARS) value.

lipid peroxidation = experiment: Thiobarbituric acid reactive substance (TBARS) value of sera and livers, alcohol liquid diet mice; assay type: in vivo, C57/BL/6J (B6) mice; settings: SLM group: 150 mg/kg-bw silymarin oral gavage, 8 weeks, ethanol diet
Procedure: as §8, with “groups: […]” for “groups:”
as §9, §10, §11, §12

[6] = CNS group: 200 mg/kg-bw carnosine oral gavage daily, 10 weeks, TAA 100 mg/kg-bw i.p.

For `NCCC(=O)N[C@@H](Cc1cnc[nH]1)C(=O)O` [CNS, carnosine], the “Relative size Heart” value [1, 6] was 0.31 ± 0.01^a g/100 g-bw, the “Relative size Kidney” value [1, 6] was 0.74 ± 0.01^a g/100 g-bw and the “Relative size Liver” value [1, 6] was 4.14 ± 0.09^a g/100 g-bw. For the same molecule, the “Relative size Perirenal fat” value [1, 6] was 1.47 ± 0.11^a g/100 g-bw, the “Relative size Spleen” value [1, 6] was 0.31 ± 0.02^a g/100 g-bw and the “relative sizes of liver, kidney and spleen” value ([1]; carnosine 200 mg/kg-bw vs TAA group, p>0.05) was “does not decrease”. For the same molecule, the Feed efficiency [2] was 8.89 ± 0.33^b %, the Final body weight [2] was 380.61 ± 10.47^b g and the Weight increase [2] was 163.99 ± 7.63^a g. For the same molecule, the AST [3] was 211.00 ± 24.57^b U/L, the Blood urea nitrogen [3] was 15.4 ± 0.89 mg/dL and the Total cholesterol [3] was 52.38 ± 3.53^a mg/dL. The Total protein [3] was 4.26 ± 0.24^b g/dL, the Triglyceride [3] was 33.25 ± 3.19^b mg/dL and the ALT [4] was 63.88 ± 5.86^b U/L. For the same molecule, the liver collagen content (collagen; CNS group (carnosine 200 mg/kg-bw) compared to TAA group, FIG. 7(B)) was “significantly decreased” and the “collagen deposition in livers (Sirius red stain)” value (collagen; CNS group (carnosine 200 mg/kg-bw) vs TAA group, FIG. 7(A)) was “remarkably decreased”.
For `COc1cc(C2Oc3cc([C@H]4Oc5cc(O)cc(O)c5C(=O)[C@@H]4O)ccc3OC2CO)ccc1O` (stereo partly drawn) [SLM, silymarin], the “Relative size Epididymal fat tissue” value [5] was 1.68 ± 0.15^bc g/100 g-bw, the “Relative size Heart” value [5] was 0.45 ± 0.01^ab g/100 g-bw and the “Relative size Kidney” value [5] was 1.19 ± 0.04^ab g/100 g-bw. The “Relative size Liver” value [5] was 4.45 ± 0.06^a g/100 g-bw, the “Relative size Perirenal fat tissue” value [5] was 0.37 ± 0.04^b g/100 g-bw and the “Relative size Spleen” value [5] was 0.18 ± 0.01^b g/100 g-bw. For the same molecule, the “TEAC Liver” value (ABTS+ free radical) was 294.16 ± 14.82^a nmole/mg-protein, the “TEAC Serum” value (ABTS+ free radical) was 4.48 ± 0.18^b nmole/mL and the “TBARS Liver” value (lipid peroxidation) was 0.64 ± 0.12^ab nmole MDA eq./mg-protein. The “TBARS Serum” value (lipid peroxidation) was 52.62 ± 2.26^bc nmole MDA eq./mL.
